Reference: US20120009277A1, “METHOD FOR SELECTION OF NOVEL ANTI-CANCER HERBS USING CHEMINFORMATIC TOOLS” (priority 2010, published 2012)

Assays:
Type in all cases: cell-based
[1] = tested on: A2780/cp (human ovarian carcinoma, resistant to cisplatin); assay: MTT cytotoxicity assay on A2780/cp cells, single agents and cisplatin combinations; settings: cisplatin alone, 24 hr
Description: (§1) Anticancer drug resistant cancerous cell lines; A2780/cp (human ovarian carcinoma, resistant to cisplatin) NCBI C454, ACHN (human renal adenocarcinoma) NCBI C206, and normal cell line HF2 (human fetal fibroblast) NCBI C336 herein used as a cell negative control are obtained from National Cell Bank of Iran, Pasture Institute of Iran (Tehran). These cells are maintained in RPMI 1640 medium supplemented with 10% FCS in a humidified incubator (37° C. and 5% CO2).
(§2) Cells are cultured in RPMI-1640 medium supplemented with 10% heat inactivated FCS, 2 mM glutamine, penicillin ([…]) and streptomycin (100 μg/ml) at 37° C. in an incubator containing 5% CO2.
(§3) Harvested cells with trypsin (0.25%) are counted by Neubauer slide and then are seeded into 96-well plates (104 cell/well). […] The insoluble formazan produced is dissolved in solution containing 100 μl DMSO (Dimethyl sulfoxide) and Optical Density (absorbance) is read against blank reagent with Multiwell scanning spectrophotometer (ELISA reader, Organon Tekninka, the Netherlands) at a wavelength of 545 nm. The percentage of cytotoxicity is calculated according to following equations: […]

[2] = tested on: ACHN (human renal adenocarcinoma); assay: MTT cytotoxicity assay on ACHN cells, single agents and doxorubicin combinations; settings: doxorubicin alone, 24 hr
Description: as §1, §2, §3

[3] = tested on: HF2 (human fetal fibroblast); assay: MTT cytotoxicity assay on HF2 normal cells, single agents and doxorubicin combinations; settings: doxorubicin alone, 24 hr
Description: as §1, §2, §3

Structure (SMILES)	IC50 [1]	IC50 [2]	IC50 [3]
N.N.[Cl][Pt][Cl] [Cisplatin]	42.5 µM		
COc1cccc2c1C(=O)c1c(O)c3c(c(O)c1C2=O)C[C@@](O)(C(=O)CO)C[C@@H]3O[C@H]1C[C@H](N)[C@H](O)[C@H](C)O1 [Doxorubicin]		3.92 µM	1.31 µM
